Laboratory results published in patent publication US20150018384A1, “TREATMENT FOR HIGH CHOLESTEROL” (FibroGen, Inc., priority 2012, published 2015).
“Also recorded” adds a separate entry of the source. Marks after values point to notes of the source that are not given here.

Tests used:
[1] = system: subjects with end stage renal disease (ESRD); assay: ESRD subjects switched from epoetin alfa to Compound A or continued on epoetin alfa; assay type: in vivo, human
DIO mice = assay: High cholesterol mouse model, diet induced obesity (DIO) mice; settings: another study, 60 mg/kg three times a week for two weeks, n=10/group, FIG. 24
From the text: Ten-week-old male apoE knockout mice (Jackson Laboratories, Bar Harbor, Me.) were fed a normal chow diet (0.02% cholesterol, 13.5% fat by weight; LabDiet). Ten-week-old male diet induced obese mice (DIO Mice, Jackson Laboratories, Bar Harbor, Me.) were fed a high fat diet (0.095% cholesterol, 60% fat by weight; ResearchDiets) starting at six-weeks-old. After 2 weeks of acclimatization, whole blood was collected for baseline measurement before administration of test reagents. All test reagents were administered orally by gavage needle three times a week for 2 weeks for the apoE mice, and three times a week for 4 weeks for the DIO mice. The animals were sacrificed at end of study. Whole blood was collected weekly in Heparin-tube by submandibular bleeding and isolated plasma was stored at −80° C. for measurement of total cholesterol.
DIO mice as described in Example 10 were used to test the effect of various compounds on cholesterol levels. Compound (60 mg/kg) or vehicle was administered to the mice (n=10/group) three times a week for four weeks. A statin compound (rosuvastatin) was also tested. Blood samples were collected at weekly and total cholesterol blood levels were tested.

[2] = system: Cholesterol Biosynthesis Genes in the Mouse Liver; assay: Microarray expression of cholesterol biosynthesis genes in mouse liver; assay type: in vivo; settings: 90 mg/kg oral
In short: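 Mouse livers taken 4 h or 8 h post-treatment; RNA from paired animals pooled and hybridized to mouse 430A 2.0 arrays, GC-RMA processed, outlier arrays removed by PCA. Values are fold-change versus timepoint-matched vehicle controls from the same study; below 1.0 means reduced liver RNA.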

ApoE deficient mice = assay: Cholesterol reduction and erythrogenesis in ApoE deficient mice, 4 weeks; assay type: in vivo, mouse; settings: orally 2, 20, 60 or 100 mg/kg three times a week for 4 weeks, n=8/group
Protocol: Ten-week-old male apoE knockout mice (Jackson Laboratories, Bar Harbor, Me.) were fed a normal chow diet (0.02% cholesterol, 13.5% fat by weight; LabDiet). […] After 2 weeks of acclimatization, whole blood was collected for baseline measurement before administration of test reagents. […] The animals were sacrificed at end of study.
Total cholesterol and hemoglobin were measured weekly.

cynomolgus monkeys = assay: Cholesterol levels after repeated oral administration in monkey toxicity studies; assay type: in vivo, cynomolgus monkey
Protocol: During these studies monkeys were fasted prior to each blood collection. Plasma samples were then evaluated at pre-dose and at different time-points for levels of total cholesterol.

[3] = baseline, Compound A 3 cohorts n=74, Epoetin alfa n=22

`Cc1nc(C(=O)NCC(=O)O)c(O)c2ccc(Oc3ccccc3)cc12` [Compound A, [(4-Hydroxy-1-methyl-7-phenoxy-isoquinoline-3-carbonyl)-amino]-acetic acid] was tested, and the LDL cholesterol change ([1]; Mean (±SD), six weeks, Compound A orally three times a week (n=74) or continued epoetin alfa (n=22)) was −25 (22)** mg/dL, the “Mean change in LDL-C, decrease” value ([1]; all cohorts, six weeks) was 25 mg/dL and the “Mean BL LDL Cholesterol” value [1, 3] was 101.71 mg/dL. For the same compound, the “Mean BL Total Cholesterol” value [1, 3] was 171.11 mg/dL, the “mean total cholesterol over the course of treatment” value ([1]; both groups stratified by BL total cholesterol ≦200 or >200 mg/dL, FIG. 16) was “reduction” and the “mean LDL-C over the course of treatment” value ([1]; both groups stratified by BL total cholesterol ≦200 or >200 mg/dL, FIG. 17) was “reduction”. The HDL-C ([1]; six weeks) was “showed a decrease”, the “total cholesterol levels compared to vehicle treated” value (DIO mice) was “statistically significant decrease in total cholesterol levels” and the “3-hydroxy-3-methylglutaryl-Coenzyme A reductase (Hmgcr) RNA expression” value ([2]; 4 h) was 0.45 fold-change. The “3-hydroxy-3-methylglutaryl-Coenzyme A synthase 1 (Hmgcs1) RNA expression” value ([2]; 4 h) was 0.94 fold-change, the “7-dehydrocholesterol reductase (Dhcr7) RNA expression” value ([2]; 4 h) was 1.03 fold-change and the “NAD(P) dependent steroid dehydrogenase-like (Nsdhl) RNA expression” value ([2]; 4 h) was 0.86 fold-change. The “acetyl-Coenzyme A acetyltransferase 2 (Acat2) RNA expression” value ([2]; 4 h) was 1.24 fold-change, the “cytochrome P450, family 51 (Cyp51) RNA expression” value ([2]; 4 h) was 0.69 fold-change and the “farnesyl diphosphate farnesyl transferase 1 (Fdft1) RNA expression” value ([2]; 4 h) was 0.68 fold-change. The “farnesyl diphosphate synthetase (Fdps) RNA expression” value ([2]; 4 h) was 0.87 fold-change, the “isopentenyl-diphosphate delta isomerase (Idi1) RNA expression” value ([2]; 4 h) was 0.73 fold-change and the “lanosterol synthase (Lss) RNA expression” value ([2]; 4 h) was 0.74 fold-change. The “mevalonate (diphospho) decarboxylase (Mvd) RNA expression” value ([2]; 4 h) was 0.68 fold-change, the “mevalonate kinase (Mvk) RNA expression” value ([2]; 4 h) was 1.00 fold-change and the “phosphomevalonate kinase (Pmvk) RNA expression” value ([2]; 4 h) was 1.27 fold-change. The “squalene epoxidase (Sqle) RNA expression” value ([2]; 4 h) was 0.61 fold-change, the “sterol-C4-methyl oxidase-like (Sc4mol) RNA expression” value ([2]; 4 h) was 0.63 fold-change and the “sterol-C5-desaturase (fungal ERG3, delta-5-desaturase) homolog (S. cerevisae) (Sc5d) RNA expression” value ([2]; 4 h) was 1.09 fold-change. For the same compound, the “3-hydroxy-3-methylglutaryl-Coenzyme A reductase (Hmgcr) RNA expression” value ([2]; 8 h) was 0.43 fold-change, the “3-hydroxy-3-methylglutaryl-Coenzyme A synthase 1 (Hmgcs1) RNA expression” value ([2]; 8 h) was 0.38 fold-change and the “7-dehydrocholesterol reductase (Dhcr7) RNA expression” value ([2]; 8 h) was 0.61 fold-change. For the same compound, the “NAD(P) dependent steroid dehydrogenase-like (Nsdhl) RNA expression” value ([2]; 8 h) was 0.62 fold-change, the “acetyl-Coenzyme A acetyltransferase 2 (Acat2) RNA expression” value ([2]; 8 h) was 0.50 fold-change and the “cytochrome P450, family 51 (Cyp51) RNA expression” value ([2]; 8 h) was 0.45 fold-change. For the same compound, the “farnesyl diphosphate farnesyl transferase 1 (Fdft1) RNA expression” value ([2]; 8 h) was 0.43 fold-change, the “farnesyl diphosphate synthetase (Fdps) RNA expression” value ([2]; 8 h) was 0.36 fold-change and the “isopentenyl-diphosphate delta isomerase (Idi1) RNA expression” value ([2]; 8 h) was 0.51 fold-change. For the same compound, the “lanosterol synthase (Lss) RNA expression” value ([2]; 8 h) was 0.44 fold-change, the “mevalonate (diphospho) decarboxylase (Mvd) RNA expression” value ([2]; 8 h) was 0.37 fold-change and the “mevalonate kinase (Mvk) RNA expression” value ([2]; 8 h) was 0.53 fold-change. The “phosphomevalonate kinase (Pmvk) RNA expression” value ([2]; 8 h) was 0.63 fold-change, the “squalene epoxidase (Sqle) RNA expression” value ([2]; 8 h) was 0.43 fold-change and the “sterol-C4-methyl oxidase-like (Sc4mol) RNA expression” value ([2]; 8 h) was 0.46 fold-change. The “sterol-C5-desaturase (fungal ERG3, delta-5-desaturase) homolog (S. cerevisae) (Sc5d) RNA expression” value ([2]; 8 h) was 0.38 fold-change, the “doses with statistically significant decreases in total cholesterol (% change)” value (ApoE deficient mice) was 100 mg/kg and the “hemoglobin compared to vehicle-treated” value (ApoE deficient mice) was “statistically significant increases in hemoglobin compared to vehicle-treated at the 60 mg/kg and 100 mg/kg doses; also recorded: significant increase in hemoglobin for the 60 mg/kg and 100 mg/kg doses”. For the same compound, the “total cholesterol (% change from baseline) compared to vehicle-treated” value (ApoE deficient mice) was “lower total cholesterol levels; also recorded: significant percent change in total cholesterol from baseline for the 100 mg/kg dose”, the total cholesterol levels (cynomolgus monkeys; 22-week study, intermittent oral dosing 1, 10, 30 and 40 mg/kg, day 28 to day 152) was “dose-dependent decrease in cholesterol levels” and the total cholesterol levels (cynomolgus monkeys; 22-week study, intermittent oral dosing 1, 10, 30 and 40 mg/kg, day 28 to day 152, listed as compound A) was “dose dependent decrease in total cholesterol”. The total cholesterol levels (cynomolgus monkeys; 28-Day study, daily oral dosing 1, 10 and 30 mg/kg, day 28) was “dose-dependent decrease in cholesterol levels”, the total cholesterol levels (cynomolgus monkeys; 28-Day study, daily oral dosing 1, 10 and 30 mg/kg, day 28, listed as compound A) was “dose dependent decrease in total cholesterol” and the cholesterol (cynomolgus monkeys; additional monkey study, up to one year) was “decreases in cholesterol were observed and maintained for up to one year”.
